Each structure is given as a SMILES string.

Holding throughout (assay type): biochemical
One assay concerns the target T1, JAK3 (Homo sapiens, UniProt P52333).
T1 sequence (P52333 1-1124): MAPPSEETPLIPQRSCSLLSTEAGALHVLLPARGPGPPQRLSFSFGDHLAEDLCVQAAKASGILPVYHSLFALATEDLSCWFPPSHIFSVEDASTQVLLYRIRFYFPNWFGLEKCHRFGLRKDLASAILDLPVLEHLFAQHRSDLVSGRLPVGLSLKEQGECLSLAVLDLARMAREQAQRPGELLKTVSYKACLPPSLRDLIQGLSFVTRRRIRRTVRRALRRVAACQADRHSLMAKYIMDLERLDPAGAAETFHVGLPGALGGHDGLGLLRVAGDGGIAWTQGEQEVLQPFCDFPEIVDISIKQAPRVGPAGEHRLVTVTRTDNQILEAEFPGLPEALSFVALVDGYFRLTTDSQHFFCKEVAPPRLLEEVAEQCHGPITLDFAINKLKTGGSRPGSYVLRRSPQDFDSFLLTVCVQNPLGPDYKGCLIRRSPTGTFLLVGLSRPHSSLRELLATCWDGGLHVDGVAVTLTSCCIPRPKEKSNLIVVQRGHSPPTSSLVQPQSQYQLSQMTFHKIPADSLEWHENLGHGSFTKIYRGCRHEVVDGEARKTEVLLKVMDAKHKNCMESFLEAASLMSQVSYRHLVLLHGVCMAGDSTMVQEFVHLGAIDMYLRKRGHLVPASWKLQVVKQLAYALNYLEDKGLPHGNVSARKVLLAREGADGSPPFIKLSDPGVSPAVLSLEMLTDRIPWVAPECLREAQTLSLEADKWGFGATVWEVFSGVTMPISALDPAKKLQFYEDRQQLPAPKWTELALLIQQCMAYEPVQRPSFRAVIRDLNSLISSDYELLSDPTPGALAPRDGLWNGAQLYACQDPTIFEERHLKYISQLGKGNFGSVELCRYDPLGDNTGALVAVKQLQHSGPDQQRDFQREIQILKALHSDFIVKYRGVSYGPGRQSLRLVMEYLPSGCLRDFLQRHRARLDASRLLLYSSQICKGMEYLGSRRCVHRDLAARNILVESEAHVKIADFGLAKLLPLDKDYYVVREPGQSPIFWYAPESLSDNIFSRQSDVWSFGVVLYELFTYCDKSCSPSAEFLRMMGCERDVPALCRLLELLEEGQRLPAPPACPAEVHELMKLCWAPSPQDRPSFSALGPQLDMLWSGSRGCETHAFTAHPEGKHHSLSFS
Briefly: Inhibition of a panel of kinases, in vitro HotSpot kinase assay: JAK3. The procedure: (§1) The degree of inhibition of a panel of kinases is determined using the in vitro HotSpot kinase assay (purified enzymes, ^33P-ATP, an appropriate substrate and 1 uM ATP).

The next assay addresses Lck (Homo sapiens, UniProt P06239). Briefly: Lck kinase activity, TR-FRET assay. To be noted: read-out: LCK (IC50). The procedure, abridged:
(§2)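 Enzyme (Btk 0.5 nM; Lck 6 nM) reacted 1 h with inhibitor, ATP at Km and biotin-peptide substrate in pH 7.4 buffer, 10% DMSO. Phosphopeptide detected by Eu-p-Tyr100 antibody plus streptavidin-APC (665/615 nm). IC50 calculated from fitted Ki(app) via ATP/Km correction plus half total enzyme.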
Background: TR-FRET usually uses a lanthanide donor and a delayed reading to cut background.

The next assay concerns the target Btk (Homo sapiens, UniProt Q06187). Briefly: Btk kinase activity, TR-FRET assay. To be noted: read-out: Btk (IC50). The procedure, abridged: as §2
For another assay, the target named is EGFR (Homo sapiens, UniProt P00533). The assay can be described thus: Inhibition of a panel of kinases, in vitro HotSpot kinase assay: EGFR. On the procedure: as §1
Chain of EGFR (P00533 25-1210): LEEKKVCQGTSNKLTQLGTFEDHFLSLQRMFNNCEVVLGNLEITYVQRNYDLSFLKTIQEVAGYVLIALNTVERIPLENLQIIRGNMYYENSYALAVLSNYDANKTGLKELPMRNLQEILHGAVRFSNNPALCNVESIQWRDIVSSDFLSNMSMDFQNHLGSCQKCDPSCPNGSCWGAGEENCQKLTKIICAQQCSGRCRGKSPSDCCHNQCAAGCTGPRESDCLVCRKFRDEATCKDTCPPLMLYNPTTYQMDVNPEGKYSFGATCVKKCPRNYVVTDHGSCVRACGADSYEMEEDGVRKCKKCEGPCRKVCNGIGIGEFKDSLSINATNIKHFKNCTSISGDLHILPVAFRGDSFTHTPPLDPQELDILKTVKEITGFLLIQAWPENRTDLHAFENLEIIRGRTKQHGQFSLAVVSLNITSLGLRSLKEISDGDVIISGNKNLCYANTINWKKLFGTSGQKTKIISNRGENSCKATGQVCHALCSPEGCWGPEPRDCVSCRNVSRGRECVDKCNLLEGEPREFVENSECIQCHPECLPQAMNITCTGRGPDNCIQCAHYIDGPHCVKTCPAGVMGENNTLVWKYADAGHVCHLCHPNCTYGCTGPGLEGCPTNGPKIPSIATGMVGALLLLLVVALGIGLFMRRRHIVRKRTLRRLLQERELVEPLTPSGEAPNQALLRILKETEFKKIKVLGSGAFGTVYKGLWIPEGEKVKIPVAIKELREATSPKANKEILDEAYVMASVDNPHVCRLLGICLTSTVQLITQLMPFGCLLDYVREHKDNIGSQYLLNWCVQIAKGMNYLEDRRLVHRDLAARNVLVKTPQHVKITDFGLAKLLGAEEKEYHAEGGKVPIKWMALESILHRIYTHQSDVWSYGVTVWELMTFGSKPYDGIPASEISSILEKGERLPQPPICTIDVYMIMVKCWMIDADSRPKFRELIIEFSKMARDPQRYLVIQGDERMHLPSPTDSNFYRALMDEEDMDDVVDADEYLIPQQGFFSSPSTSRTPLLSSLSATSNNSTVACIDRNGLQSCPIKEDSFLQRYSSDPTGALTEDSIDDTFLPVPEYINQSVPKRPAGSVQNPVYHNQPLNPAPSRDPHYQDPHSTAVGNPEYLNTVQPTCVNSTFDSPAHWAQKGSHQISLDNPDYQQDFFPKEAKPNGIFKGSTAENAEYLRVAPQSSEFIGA

Chain of Btk (Q06187 whole entry): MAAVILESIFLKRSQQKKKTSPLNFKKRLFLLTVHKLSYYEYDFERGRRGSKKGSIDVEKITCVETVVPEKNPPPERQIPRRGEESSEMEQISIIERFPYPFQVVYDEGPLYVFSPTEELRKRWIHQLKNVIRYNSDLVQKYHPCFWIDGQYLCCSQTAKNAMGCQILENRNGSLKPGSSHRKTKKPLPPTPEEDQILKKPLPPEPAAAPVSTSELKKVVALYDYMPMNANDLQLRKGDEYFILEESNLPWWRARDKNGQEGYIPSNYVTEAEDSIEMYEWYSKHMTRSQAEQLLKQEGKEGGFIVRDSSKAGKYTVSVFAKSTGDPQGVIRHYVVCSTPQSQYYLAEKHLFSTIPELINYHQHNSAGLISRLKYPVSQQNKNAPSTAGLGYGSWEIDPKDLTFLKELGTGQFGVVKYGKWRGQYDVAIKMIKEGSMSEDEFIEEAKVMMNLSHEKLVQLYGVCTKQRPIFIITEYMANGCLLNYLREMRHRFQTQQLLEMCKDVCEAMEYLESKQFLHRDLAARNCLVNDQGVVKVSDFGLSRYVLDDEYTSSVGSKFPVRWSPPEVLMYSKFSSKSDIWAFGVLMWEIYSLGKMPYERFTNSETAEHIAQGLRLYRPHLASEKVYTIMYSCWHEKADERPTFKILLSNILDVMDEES
Chain of Lck (P06239 whole entry, species assumed): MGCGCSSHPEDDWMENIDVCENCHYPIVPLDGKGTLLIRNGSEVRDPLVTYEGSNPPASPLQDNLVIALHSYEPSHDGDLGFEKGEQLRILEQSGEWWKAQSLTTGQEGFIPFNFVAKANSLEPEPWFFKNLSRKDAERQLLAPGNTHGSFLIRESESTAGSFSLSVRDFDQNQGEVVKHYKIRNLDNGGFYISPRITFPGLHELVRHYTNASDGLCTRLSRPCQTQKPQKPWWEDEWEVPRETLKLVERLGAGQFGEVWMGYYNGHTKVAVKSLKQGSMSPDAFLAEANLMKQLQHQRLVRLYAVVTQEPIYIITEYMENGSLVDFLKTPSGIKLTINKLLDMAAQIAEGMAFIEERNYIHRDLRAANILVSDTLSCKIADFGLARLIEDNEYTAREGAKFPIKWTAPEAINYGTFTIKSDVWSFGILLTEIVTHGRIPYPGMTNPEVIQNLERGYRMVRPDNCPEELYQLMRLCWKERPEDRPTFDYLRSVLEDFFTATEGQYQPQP

For `Cc1ccnc(NC(=O)c2ccc(Oc3ccnc4[nH]nc(NC5CCN(C(=O)C6(C)CCN(C)CC6)CC5)c34)cc2)c1` [compound 284, 4-(3-(1-(1,4-dimethylpiperidine-4-carbonyl)piperidin-4-ylamino)-1H-pyrazolo[3,4-b]pyridin-4-yloxy)-N-(4-methylpyridin-2-yl)benzamide], the IC50 against JAK3 is > 10 µM; at Lck it was 0.1 to 1 µM; on Btk, 0.1 to 1 µM; against EGFR, > 10 µM.
For the molecule `Cc1ccnc(NC(=O)c2ccc(Oc3ccnc4[nH]nc(N[C@@H]5CCCN(C(=O)[C@H]6CCOC6)C5)c34)cc2)c1` [compound 116, N-(4-methylpyridin-2-yl)-4-[(3-{[(3R)-1-[(3S)-oxolane-3-carbonyl]piperidin-3-yl]amino}-1H-pyrazolo[3,4-b]pyridin-4-yl)oxy]benzamide], the IC50 was > 10 µM against JAK3, 0.1 to 1 µM at Lck, < 0.1 µM at Btk and 1 to 10 µM at EGFR.
On the same counts, the results for `CCNC(=O)N1CCC[C@@H](Nc2n[nH]c3nccc(Oc4ccc(C(=O)Nc5ccccn5)cc4)c23)C1` [compound 229, (3R)-N-ethyl-3-[(4-{4-[(pyridin-2-yl)carbamoyl]phenoxy}-1H-pyrazolo[3,4-b]pyridin-3-yl)amino]piperidine-1-carboxamide] are > 10 µM, > 10 µM, < 0.1 µM and 1 to 10 µM.
Turning to `C=CC(=O)N1CCC[C@@H](Nc2n[nH]c3nccc(Oc4ccc(NC(=O)Nc5cc(C(F)(F)F)ccn5)cc4)c23)C1` [compound 201, 1-{4-[(3-{[(3R)-1-(prop-2-enoyl)piperidin-3-yl]amino}-1H-pyrazolo[3,4-b]pyridin-4-yl)oxy]phenyl}-3-[4-(trifluoromethyl)pyridin-2-yl]urea], the half-inhibitory concentration (IC50) against JAK3, at Lck, on Btk and at EGFR was < 0.1 µM each time.
Turning to `Cc1ccnc(NC(=O)c2ccc(Oc3ccnc4[nH]nc(N[C@@H]5CCN(C(=O)C6(C#N)CC6)C5)c34)cc2)c1` [compound 279, (R)-4-(3-(1-(1-cyanocyclopropanecarbonyl)pyrrolidin-3-ylamino)-1H-pyrazolo[3,4-b]pyridin-4-yloxy)-N-(4-methylpyridin-2-yl)benzamide], the IC50 was > 10 µM against JAK3, 1 to 10 µM on Lck, < 0.1 µM at Btk and > 10 µM on EGFR.
Consider `Cc1ccnc(NC(=O)c2ccc(Oc3ccnc4[nH]nc(N[C@@H]5CCCN(C(=O)[C@@H]6CCCO6)C5)c34)cc2)c1` (single isomer, unassigned) [compound 94], for which the IC50 against JAK3 is > 10 µM; on Lck, 0.1 to 1 µM; on Btk, < 0.1 µM; against EGFR, 1 to 10 µM.
As for `CN(C)C/C=C/C(=O)N1CC[C@@H](Nc2n[nH]c3nccc(Oc4ccc(Oc5ccccc5)cc4)c23)C1` [compound 5, (2E)-4-(dimethylamino)-1-[(3R)-3-{[4-(4-phenoxyphenoxy)-1H-pyrazolo[3,4-b]pyridin-3-yl]amino}pyrrolidin-1-yl]but-2-en-1-one], the IC50 on JAK3 was > 10 µM; at Lck, < 0.1 µM; on Btk, < 0.1 µM; against EGFR it was < 0.1 µM.
For the molecule `C=CC(=O)N1CCC[C@@H](Nc2n[nH]c3nccc(Oc4ccc(C(=O)Nc5cc(C)on5)cc4)c23)C1` [compound 178], the IC50 is 0.1 to 1 µM at JAK3, > 10 µM at Lck, < 0.1 µM on Btk and 1 to 10 µM against EGFR.
The corresponding values for `C=CC(=O)N1CC[C@@H](Nc2n[nH]c3nccc(Oc4cccc(C(=O)Nc5ccc(C(C)C)c(C)c5)c4)c23)C1` [compound 122, N-[3-methyl-4-(propan-2-yl)phenyl]-3-[(3-{[(3R)-1-(prop-2-enoyl)pyrrolidin-3-yl]amino}-1H-pyrazolo[3,4-b]pyridin-4-yl)oxy]benzamide] are < 0.1 µM, < 0.1 µM, < 0.1 µM and 0.1 to 1 µM.
As to `COCCN(C)C/C=C/C(=O)N1CC[C@@H](Nc2n[nH]c3nccc(Oc4ccc(Oc5ccccc5)cc4)c23)C1` [compound 9, (2E)-4-[(2-methoxyethyl)(methyl)amino]-1-[(3R)-3-{[4-(4-phenoxyphenoxy)-1H-pyrazolo[3,4-b]pyridin-3-yl]amino}pyrrolidin-1-yl]but-2-en-1-one], the IC50 against JAK3 was > 10 µM; on Lck, < 0.1 µM; at Btk it was < 0.1 µM; on EGFR, < 0.1 µM.
Take `C=CC(=O)N1CCC[C@@H](Nc2n[nH]c3nccc(Oc4ccc(C(=O)Nc5nc(C)c(C)s5)cc4)c23)C1` [compound 146]: the IC50 is < 0.1 µM at JAK3, 0.1 to 1 µM on Lck, < 0.1 µM at Btk and 0.1 to 1 µM at EGFR.
On to `C=CC(=O)N1CCC[C@@H](Nc2n[nH]c3nccc(Oc4ccc(C(=O)Nc5nc6c(s5)CCN(C)C6)cc4)c23)C1` [compound 145], for which the IC50 against JAK3 was < 0.1 µM; on Lck, > 10 µM; on Btk, < 0.1 µM; against EGFR, > 10 µM.
`Cc1ccnc(NC(=O)c2ccc(Oc3ccnc4[nH]nc(N[C@@H]5CCCN(C(=O)CCN(C)C)C5)c34)cc2)c1` [compound 118, 4-[(3-{[(3R)-1-[3-(dimethylamino)propanoyl]piperidin-3-yl]amino}-1H-pyrazolo[3,4-b]pyridin-4-yl)oxy]-N-(4-methylpyridin-2-yl)benzamide]: the IC50 was > 10 µM against JAK3, < 0.1 µM on Lck, < 0.1 µM on Btk and 1 to 10 µM against EGFR.
As to `CCOP(=O)(CCCC(=O)N1CCC[C@@H](Nc2n[nH]c3nccc(Oc4ccc(C(=O)Nc5cc(C)ccn5)cc4)c23)C1)OCC` [compound 271, (R)-diethyl 4-(3-(4-(4-(4-methylpyridin-2-ylcarbamoyl)phenoxy)-1H-pyrazolo[3,4-b]pyridin-3-ylamino)piperidin-1-yl)-4-oxobutylphosphonate], the IC50 against JAK3 was > 10 µM; on Lck, 0.1 to 1 µM; at Btk it was < 0.1 µM; against EGFR it was > 10 µM.
Take `C=CC(=O)N1CCC[C@@H](Nc2n[nH]c3nccc(Oc4ccc(C(=O)Nc5cc(C)n(C)n5)cc4)c23)C1` [compound 159]: the IC50 was 0.1 to 1 µM at JAK3, > 10 µM on Lck, < 0.1 µM on Btk and 1 to 10 µM against EGFR.
Consider `C=CC(=O)N1CCC[C@@H](Oc2n[nH]c3nccc(Nc4cccc(C(=O)Nc5ccc(C(C)C)c(C)c5)c4)c23)C1` [compound 132, N-[3-methyl-4-(propan-2-yl)phenyl]-3-[(3-{[(3R)-1-(prop-2-enoyl)piperidin-3-yl]oxy}-1H-pyrazolo[3,4-b]pyridin-4-yl)amino]benzamide], for which the IC50 was < 0.1 µM on JAK3, 1 to 10 µM on Lck, < 0.1 µM on Btk and < 0.1 µM on EGFR.
For the molecule `C=CC(=O)N1CC[C@@H](Nc2n[nH]c3nccc(Oc4ccc(Cl)cc4)c23)C1` [compound 1], the IC50 against JAK3 is 1 to 10 µM; at Lck it was 1 to 10 µM; at Btk, < 0.1 µM; on EGFR it was 0.1 to 1 µM.
As for `CCNC(=O)N1CCC[C@@H](Nc2n[nH]c3nccc(Oc4ccc(C(=O)Nc5cc(C)ccn5)cc4)c23)C1` [compound 227, (R)-N-ethyl-3-(4-(4-(4-methylpyridin-2-ylcarbamoyl)phenoxy)-1H-pyrazolo[3,4-b]pyridin-3-ylamino)piperidine-1-carboxamide], the IC50 was > 10 µM at JAK3, 1 to 10 µM on Lck, < 0.1 µM on Btk and > 10 µM on EGFR.

A word on the IC50: it is the concentration that gives 50% inhibition.
